Patent publication US20150306154A1, “STRAINS AND METHODS USEFUL FOR MYCOTOXINS” (DuPont Nutrition Biosciences ApS, priority 2011, published 2015)
Read-outs that look alike come from different tables or passages of the source.

Legend:
[1] = test system: IPEC-J2 cells; type: cell-based, porcine; details: relative to unstimulated IPEC-J2 cells
[2] = test system: nursery pigs; details: 3 ppm DON in diet, 7 days

Compound	IL-6 gene expression fold change ([1]; DON 10 ng/mL) [fold]	IL-8 gene expression fold change ([1]; DON 10 ng/mL) [fold]	TNF-α gene expression fold change ([1]; LPS/DON)	ADFI ([2]; Non-Responders) [kg]	ADG ([2]; Non-Responders) [kg]	G:F ([2]; Non-Responders)	ADFI ([2]; Responders) [kg]	ADG ([2]; Responders) [kg]	G:F ([2]; Responders)	IL-6 gene expression fold change ([1]; LPS 10 ng/mL) [fold]	IL-8 gene expression fold change ([1]; LPS 10 ng/mL) [fold]	TNF-α gene expression fold change ([1]; LPS 10 ng/mL) [fold]
CC1=C[C@H]2O[C@@H]3[C@H](O)C[C@](C)([C@@]2(CO)[C@H](O)C1=O)[C@]31CO1 [DON, deoxynivalenol]	−0.86	0.56	about 5 fold	0.71	0.46	0.64	0.42	0.26	0.61	–	–	–
lipopolysaccharide [LPS]	–	–	–	–	–	–	–	–	–	0.29	0.88	0.16
